According to PubChem BioAssay AID1963858 (Molecular Pharmacology Branch, DTP, NCI, 2024):

Test system: HOP-62 multicell spheroids with HUVEC/MSC, viability
Assay: Anticancer human tumor HOP-62 cell line growth inhibition [KRAS2];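 also: viability read after a week of compound exposure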;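 as to viability, T/C: 100% = DMSO vehicle-treated spheroids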
Settings: for IC50: curve of first compound; for viability, T/C: stronger effect = lower value
Text: Multicellular complex tumor spheroid response to RAS pathway inhibitors in combination with a targeted agents in patient-derived cell lines with oncogenic KRAS variants from multiple cancer types
A high-throughput screen of multi-cell type tumor spheroids was designed to identify active combinations of targeted small molecules and KRAS pathway inhibitors. Complex spheroids include a stromal component modeled by human endothelial cells (HUVEC) and fibroblasts modeled by human mesenchymal stem cells (MSCs). The concentration ranges selected for each drug and investigational agent were based upon clinically achievable concentrations if the clinical Cmax of the agent was known.
Compounds. The drugs and investigational agents: BI-3406 (NSC825286), BAY-293 (NSC824723), batoprotafib (TNO155; NSC825523), sotorasib (AMG 510; NSC818433), MRTX1257 (NSC819558), elimusertib (BAY 1895344; NSC800525), molibresib (GSK525762; NSC774829), temuterkib (LY3214996; NSC803410), venetoclax (NSC766270), alisertib (NSC759677), olaparib (NSC753686), talazoparib (NSC767125), erdafitinib (NSC781556), ipatasertib (NSC767898), cabozantinib (NSC761068), nintedanib (NSC756659), abemaciclib (NSC768073), docetaxel (NSC628503), trametinib (NSC758246), and sapanisertib (NSC764658) were obtained from the National Cancer Institute (NCI) Developmental Therapeutics Program Chemical Repository. The FDA-approved anticancer drug set is available from the Developmental Therapeutics Program. […] The stock solutions were prepared in dimethyl sulfoxide (DMSO, Sigma-Aldrich, St. Louis, MO, cat. D2650) at 800-fold the tested concentration and stored at -70 degrees C prior to their use. All drugs and investigational agents were tested over a range starting from a high concentration at or near the clinical Cmax and decreasing in half-log increments. If the clinical Cmax for an agent had not been determined, the highest concentration tested was 10 microM.
Cell Culture. All cells were maintained in an incubator at 37 degrees C and 5% CO2 with 95% humidity. The PDC lines were cultured according to standard operating procedures established by the NCI PDMR (https://pdmr.cancer.gov/sops/default.htm). Briefly, all PDCs were thawed and cultured in Matrigel-coated flasks prepared with a working solution of 1X Ham's F-12 nutrient mix, without supplementation (Invitrogen, Waltham, MA, cat. 11765054), 100 U/mL penicillin-streptomycin (Invitrogen, cat. 15140122), and 2.5% Matrigel (Corning Inc., Corning, NY, cat. 354248) for the first three passages. All PDCs were cultured in complete DMEM/F-12 media containing advanced DMEM/F-12 (Invitrogen, cat. 12634028), 4.9% defined fetal bovine serum, heat inactivated (HyClone Laboratories Inc., Logan, UT, cat. SH30070.03HI), 389 ng/mL hydrocortisone (Sigma-Aldrich, cat. H4001), 9.7 ng/mL human EGF recombinant protein (Invitrogen, cat. PHG0313), 23.4 microg/mL adenine (Sigma-Aldrich, cat. A2786), 97.3 U/mL penicillin-streptomycin (Invitrogen, cat. 15140122), 1.9 mM L-glutamine (Invitrogen, cat. 25030081), and 9.7 microM Y-27632 dihydrochloride (Tocris Bioscience, Bristol, United Kingdom, cat. 1254). The PDCs were cultured in complete DMEM/F12 media without 9.7 microM Y-27632 dihydrochloride for at least two passages prior to the screen. The established cell line HOP-62 was cultured in RPMI 1640 medium, HEPES (Invitrogen, cat. 22400105) with 10% defined fetal bovine serum (HyClone Laboratories Inc., cat. SH30070.03) and 2 mM L-glutamine (Invitrogen, cat. 25030081). The pooled donor HUVEC were cultured in endothelial cell growth medium 2 (PromoCell, Heidelberg, Germany, cat. C-22011) and the hMSC were cultured in mesenchymal stem cell growth medium 2 (PromoCell, cat. C-28009). For all experiments, HUVEC and hMSC were used at passages </=5, while the malignant cell lines were used at passages </=15. […]

[1] = second compound 0.1 µM, first compound 0.000316 µM
[2] = second compound 0.1 µM, first compound 0.001 µM
[3] = second compound 0.1 µM, first compound 0.00316 µM
[4] = second compound 0.1 µM, first compound 0.01 µM
[5] = second compound 0.1 µM, first compound 0.0316 µM
[6] = second compound 0.1 µM, first compound 0.1 µM
[7] = second compound 0.316 µM, first compound 0.000316 µM
[8] = second compound 0.316 µM, first compound 0.001 µM
[9] = second compound 0.316 µM, first compound 0.00316 µM
[10] = second compound 0.316 µM, first compound 0.01 µM
[11] = second compound 0.316 µM, first compound 0.0316 µM
[12] = second compound 0.316 µM, first compound 0.1 µM
[13] = second compound 1 µM, first compound 0.000316 µM
[14] = second compound 1 µM, first compound 0.001 µM
[15] = second compound 1 µM, first compound 0.00316 µM
[16] = second compound 1 µM, first compound 0.01 µM
[17] = second compound 1 µM, first compound 0.0316 µM
[18] = second compound 1 µM, first compound 0.1 µM
[19] = second compound 3.16 µM, first compound 0.000316 µM
[20] = second compound 3.16 µM, first compound 0.001 µM
[21] = second compound 3.16 µM, first compound 0.00316 µM
[22] = second compound 3.16 µM, first compound 0.01 µM
[23] = second compound 3.16 µM, first compound 0.0316 µM
[24] = second compound 3.16 µM, first compound 0.1 µM
[25] = second compound 10 µM, first compound 0.000316 µM
[26] = second compound 10 µM, first compound 0.001 µM
[27] = second compound 10 µM, first compound 0.00316 µM
[28] = second compound 10 µM, first compound 0.01 µM
[29] = second compound 10 µM, first compound 0.0316 µM
[30] = second compound 10 µM, first compound 0.1 µM

Row | SMILES | IC50 (second compound 0.1 µM) [nM] | IC50 (second compound 0.316 µM) [nM] | IC50 (second compound 1 µM) [nM] | IC50 (second compound 3.16 µM) [nM] | IC50 (second compound 10 µM) [nM] | viability, T/C [1] [%] | viability, T/C [2] [%] | viability, T/C [3] [%] | viability, T/C [4] [%] | viability, T/C [5] [%] | viability, T/C [6] [%] | viability, T/C [7] [%] | viability, T/C [11] [%] | viability, T/C [12] [%] | viability, T/C [17] [%] | viability, T/C [18] [%] | viability, T/C [23] [%] | viability, T/C [24] [%] | viability, T/C [29] [%] | viability, T/C [30] [%] | further results
1 | CN(C)C/C=C/C(=O)Nc1cc2c(Nc3ccc(F)c(Cl)c3)ncnc2cc1O[C@H]1CCOC1 + CNCc1ccccc1-c1csc(C(C)Nc2nc(C)nc3cc(OC)c(OC)cc23)c1 | > 100 | > 100 | > 100 | 0.515 | < 0.316 | 110 | 106 | 111 | 115 | 111 | 96.5 | 124 | 113 | 108 | 85.8 | 101 | 31.4 | 14 | 0.16 | 1.46 | viability, T/C [8]: 115%; viability, T/C [9]: 110%; viability, T/C [10]: 109%; viability, T/C [13]: 101%; viability, T/C [14]: 105%; viability, T/C [15]: 101%; viability, T/C [16]: 99.8%; viability, T/C [19]: 73.8%; viability, T/C [20]: 16.4%; viability, T/C [21]: 19.2%; viability, T/C [22]: 6.17%; viability, T/C [25]: 0.18%; viability, T/C [26]: 0.14%; viability, T/C [27]: 0.15%; viability, T/C [28]: 0.15%
2 | CC(C)n1nc(-c2ccc3oc(N)nc3c2)c2c(N)ncnc21 + C=CC(=O)N1CCN(c2nc(=O)n(-c3c(C)ccnc3C(C)C)c3nc(-c4c(O)cccc4F)c(F)cc23)C(C)C1 | < 0.316 | 0.36 | 0.592 | 0.671 | < 0.316 | 42.3 | 33.4 | 19.2 | 15.4 | 10.2 | 8.15 | 51.1 | 11.4 | 8.53 | 11 | 8.43 | 12.4 | 8.73 | 11.8 | 9.42 | viability, T/C [8]: 41%; viability, T/C [9]: 25.3%; viability, T/C [10]: 14.2%; viability, T/C [13]: 62.8%; viability, T/C [14]: 38.9%; viability, T/C [15]: 25.5%; viability, T/C [16]: 15.3%; viability, T/C [19]: 60.2%; viability, T/C [20]: 43.8%; viability, T/C [21]: 31.9%; viability, T/C [22]: 18.6%; viability, T/C [25]: 36.9%; viability, T/C [26]: 28.8%; viability, T/C [27]: 25%; viability, T/C [28]: 16.2%
3 | O=C(c1cc(Cc2n[nH]c(=O)c3ccccc23)ccc1F)N1CCN(C(=O)C2CC2)CC1 + CNCc1ccccc1-c1csc(C(C)Nc2nc(C)nc3cc(OC)c(OC)cc23)c1 | 7080 | 6810 | 6100 | < 31.6 | < 31.6 | – | – | – | – | 105 | 106 | – | 85.7 | 84.3 | 84.7 | 85.3 | 35.1 | 35.4 | 0.17 | 0.21 | viability, T/C (second compound 0.1 µM, first compound 0.316 µM): 97.6%; viability, T/C (second compound 0.1 µM, first compound 1 µM): 86%; viability, T/C (second compound 0.1 µM, first compound 3.16 µM): 65.7%; viability, T/C (second compound 0.1 µM, first compound 10 µM): 43.3%; viability, T/C (second compound 0.316 µM, first compound 0.316 µM): 83.2%; viability, T/C (second compound 0.316 µM, first compound 1 µM): 85.3%; viability, T/C (second compound 0.316 µM, first compound 3.16 µM): 65.9%; viability, T/C (second compound 0.316 µM, first compound 10 µM): 42.1%; viability, T/C (second compound 1 µM, first compound 0.316 µM): 78.9%; viability, T/C (second compound 1 µM, first compound 1 µM): 83.2%; viability, T/C (second compound 1 µM, first compound 3.16 µM): 59.5%; viability, T/C (second compound 1 µM, first compound 10 µM): 42.8%; viability, T/C (second compound 3.16 µM, first compound 0.316 µM): 28.4%; viability, T/C (second compound 3.16 µM, first compound 1 µM): 0.6%; viability, T/C (second compound 3.16 µM, first compound 3.16 µM): 42.3%; viability, T/C (second compound 3.16 µM, first compound 10 µM): 0.43%; viability, T/C (second compound 10 µM, first compound 0.316 µM): 29.1%; viability, T/C (second compound 10 µM, first compound 1 µM): 0.15%; viability, T/C (second compound 10 µM, first compound 3.16 µM): 0.14%; viability, T/C (second compound 10 µM, first compound 10 µM): 1.69%
